Consider 10 compounds from BindingDB's records for doi:10.1021/acschembio.6b00962 (University of California Riverside, 2017).

Non-standard residues stand in square brackets, D forms with d. Residues, ends and D or L forms follow the SMILES beside them. ξ: configuration not given here. *: point of attachment. hCys = N[C@@H](CCS)C(=O)O; Dap = NC[C@H](N)C(=O)O; ξDap = NCC(N)C(=O)O; ClAc = O=C(CCl)*

A word on the IC50: it is the concentration that inhibits the measured activity by half. A word on the Kd: it is the concentration at which binding is half-saturated. A higher Kd goes with lower affinity.

Holding throughout (assay): DELFIA
The target of assay [1] is Apoptosis regulator Bcl-2 (Homo sapiens, UniProt P10415). The method, then:
(§1) After 1 h of incubation at RT to allow the immunoreaction to complete, a second washing step allowed removal of the unbound protein in complex with Eu antibodies if displaced by a test compound. […] Each well received a final DMSO concentration equal to 1%. Protein, peptide, and antibody solutions were prepared in DELFIA assay buffer (PerkinElmer).

The target of assay [2] is T1, Bcl-2-related protein A1 [1-149] (Human, UniProt Q16548).
T1 construct: 1-149
T1 sequence (Q16548 whole entry): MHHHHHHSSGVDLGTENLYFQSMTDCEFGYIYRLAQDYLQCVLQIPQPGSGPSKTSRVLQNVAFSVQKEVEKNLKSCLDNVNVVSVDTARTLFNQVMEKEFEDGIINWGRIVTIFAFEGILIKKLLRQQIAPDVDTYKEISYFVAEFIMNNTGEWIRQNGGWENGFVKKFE
The method, then: as §1

The target of assay [3] is Induced myeloid leukemia cell differentiation protein Mcl-1 (Homo sapiens, UniProt Q07820). The method, then:
as §1

The target in assay [4] is Isoform Bcl-X(L) of Bcl-2-like protein 1 (Bcl-xL) (Homo sapiens, UniProt Q07817). The method, then:
as §1

Chain of Isoform Bcl-X(L) of Bcl-2-like protein 1 (Bcl-xL) (Q07817 whole entry G70A, canonical isoform): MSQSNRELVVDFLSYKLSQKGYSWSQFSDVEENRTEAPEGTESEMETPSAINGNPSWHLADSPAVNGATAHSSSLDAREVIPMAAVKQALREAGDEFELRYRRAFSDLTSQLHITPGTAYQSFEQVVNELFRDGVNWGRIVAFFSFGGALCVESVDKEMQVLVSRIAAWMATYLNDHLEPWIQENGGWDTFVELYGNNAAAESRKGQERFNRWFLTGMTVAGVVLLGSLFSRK
Chain of Apoptosis regulator Bcl-2 (P10415 whole entry): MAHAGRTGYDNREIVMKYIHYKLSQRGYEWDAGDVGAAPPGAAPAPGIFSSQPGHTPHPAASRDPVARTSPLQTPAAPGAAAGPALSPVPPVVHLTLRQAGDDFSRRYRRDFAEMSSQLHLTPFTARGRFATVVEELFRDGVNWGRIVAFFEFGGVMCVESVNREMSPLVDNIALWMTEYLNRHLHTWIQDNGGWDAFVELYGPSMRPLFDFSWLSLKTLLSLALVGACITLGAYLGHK
Chain of Induced myeloid leukemia cell differentiation protein Mcl-1 (Q07820 whole entry): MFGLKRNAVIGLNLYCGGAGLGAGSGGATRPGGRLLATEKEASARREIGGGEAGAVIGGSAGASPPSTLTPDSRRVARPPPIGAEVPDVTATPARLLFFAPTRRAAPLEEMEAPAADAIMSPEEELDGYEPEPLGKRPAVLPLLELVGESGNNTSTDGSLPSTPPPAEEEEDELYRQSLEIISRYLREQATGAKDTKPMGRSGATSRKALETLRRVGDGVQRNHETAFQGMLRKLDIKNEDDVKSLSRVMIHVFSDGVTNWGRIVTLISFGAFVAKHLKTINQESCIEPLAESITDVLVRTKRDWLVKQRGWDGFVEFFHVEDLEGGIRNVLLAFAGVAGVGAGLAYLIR

Ac-CATQLRRFGDKLN-NH2: the IC50 is over 1000 nM in assay [1], 15 nM in assay [2], over 1000 nM in assay [3] and over 1000 nM in assay [4].

`CC[C@H](C)[C@H](NC(=O)C(CNC(=O)CCl)NC(C)=O)C(=O)N[C@@H](C)C(=O)N[C@@H](CCC(N)=O)C(=O)N[C@@H](CCC(=O)O)C(=O)N[C@@H](CC(C)C)C(=O)N[C@@H](CCCNC(=N)N)C(=O)N[C@@H](CCCNC(=N)N)C(=O)N[C@H](C(=O)NCC(=O)N[C@@H](CC(=O)O)C(=O)N[C@@H](CCC(=O)O)C(=O)N[C@@H](Cc1ccccc1)C(=O)N[C@@H](CC(N)=O)C(=O)N[C@@H](C)C(=O)N[C@@H](Cc1ccc(O)cc1)C(=O)N[C@@H](Cc1ccc(O)cc1)C(=O)N[C@@H](C)C(=O)N[C@@H](CCCNC(=N)N)C(=O)N[C@@H](CCCNC(=N)N)C(N)=O)[C@@H](C)CC` (some centres not stated) [130E7] (Ac-[ξDap](ClAc)IAQELRRIGDEFNAYYARR-NH2) returned an IC50 in assay [3] of 23 nM. This compound also came in with a Kd in assay [3] (pH 7.4, 25 °C) of 2 nM.

Consider `C=CCCC[C@](C)(NC(=O)[C@H](CC(=O)O)NC(=O)CNC(=O)[C@@H](NC(=O)[C@](C)(CCCC=C)NC(=O)[C@H](CCCNC(=N)N)NC(=O)[C@H](CC(C)C)NC(=O)[C@H](CCC(=O)O)NC(=O)[C@H](CCC(N)=O)NC(=O)[C@H](C)NC(=O)C(CNC(=O)CCl)NC(C)=O)[C@@H](C)CC)C(=O)N[C@@H](Cc1ccccc1)C(=O)N[C@@H](CC(N)=O)C(=O)N[C@@H](C)C(=O)N[C@@H](Cc1ccc(O)cc1)C(=O)N[C@@H](Cc1ccc(O)cc1)C(=O)N[C@@H](C)C(=O)N[C@@H](CCCNC(=N)N)C(=O)N[C@@H](CCCNC(=N)N)C(N)=O` (some centres not stated) [130D11], for which the IC50 in assay [1] came to 199 nM; in assay [2], 13.9 nM; in assay [3], 32 nM; in assay [4] it was 220 nM.

Consider `CC[C@H](C)[C@H](NC(=O)[C@H](CCCNC(=N)N)NC(=O)[C@H](CCCNC(=N)N)NC(=O)[C@H](CC(C)C)NC(=O)[C@H](CCC(=O)O)NC(=O)[C@H](CCC(N)=O)NC(=O)[C@H](C)NC(=O)[C@@H](NC(=O)[C@H](CNC(=O)CCl)NC(C)=O)[C@@H](C)CC)C(=O)NCC(=O)N[C@@H](CC(=O)O)C(=O)N[C@@H](CCC(=O)O)C(=O)N[C@@H](Cc1ccccc1)C(=O)N[C@@H](CC(N)=O)C(=O)N[C@@H](C)C(=O)N[C@@H](Cc1ccc(O)cc1)C(=O)N[C@@H](Cc1ccc(O)cc1)C(=O)N[C@@H](C)C(=O)N[C@@H](CCCNC(=N)N)C(=O)N[C@@H](CCCNC(=N)N)C(N)=O` [130E7] (Ac-[Dap](ClAc)IAQELRRIGDEFNAYYARR-NH2), for which the values for the IC50 in assay [1], in assay [2] and in assay [4] were 27 nM, 8.7 nM and 46.5 nM, respectively. In addition, the Kd in assay [2] (pH 7.4, 25 °C) turned out to be 2.6 nM; in assay [4] (pH 7.4), 25.5 nM.

For the compound `CC[C@H](C)[C@H](NC(=O)[C@H](CCCNC(=N)N)NC(=O)[C@H](CCCNC(=N)N)NC(=O)[C@H](CC(C)C)NC(=O)[C@H](CCC(N)=O)NC(=O)[C@H](C)NC(=O)[C@H](CS)NC(=O)[C@H](CCC(=O)O)NC(=O)[C@H](CC(=O)O)NC(=O)[C@H](CCCCN)NC(=O)[C@H](CC(C)C)NC(=O)[C@H](CC(=O)O)NC(=O)[C@H](C)NC(=O)[C@@H]1CCCN1C(C)=O)C(=O)NCC(=O)N[C@@H](CC(=O)O)C(=O)N[C@@H](CCCCN)C(=O)N[C@H](C(=O)N[C@@H](CC(N)=O)C(=O)N[C@@H](CC(C)C)C(N)=O)C(C)C`, the IC50 was over 1000 nM in assay [1], 431 nM in assay [2] and over 1000 nM in assay [4].

The compound `CC(=O)NC(CNC(=O)CCl)C(=O)N[C@@H](C)C(=O)N[C@H](C(=O)N[C@@H](CCC(N)=O)C(=O)N[C@@H](CC(C)C)C(=O)N[C@@H](CCCNC(=N)N)C(=O)N[C@@H](CCCNC(=N)N)C(=O)N[C@@H](Cc1ccccc1)C(=O)NCC(=O)N[C@@H](CC(=O)O)C(=O)N[C@@H](CCCCN)C(=O)N[C@@H](CC(C)C)C(=O)N[C@@H](CC(N)=O)C(=O)N[C@@H](Cc1ccccc1)C(=O)N[C@@H](CCCNC(=N)N)C(=O)N[C@@H](CCC(N)=O)C(=O)N[C@@H](CCCCN)C(=O)N[C@@H](CC(C)C)C(=O)N[C@@H](CC(C)C)C(=O)N[C@@H](CC(N)=O)C(N)=O)[C@@H](C)O` (some centres not stated) [λ_hNOXA] (Ac-[ξDap](ClAc)ATQLRRFGDKLNFRQKLLN-NH2) came in with an IC50 in assay [3] of 233 nM.

For the compound `CC1(C)CCC(CN2CCN(c3ccc(C(=O)NS(=O)(=O)c4ccc(NCC5CCOCC5)c([N+](=O)[O-])c4)c(Oc4cnc5[nH]ccc5c4)c3)CC2)=C(c2ccc(Cl)cc2)C1`, the IC50 in assay [2] and in assay [3] was over 1000 nM throughout.

Take `CC(=O)N[C@@H](CCS)C(=O)N[C@@H](C)C(=O)N[C@H](C(=O)N[C@@H](CCC(N)=O)C(=O)N[C@@H](CC(C)C)C(=O)N[C@@H](CCCNC(=N)N)C(=O)N[C@@H](CCCNC(=N)N)C(=O)N[C@@H](Cc1ccccc1)C(=O)NCC(=O)N[C@@H](CC(=O)O)C(=O)N[C@@H](CCCCN)C(=O)N[C@@H](CC(C)C)C(=O)N[C@@H](CC(N)=O)C(=O)N[C@@H](Cc1ccccc1)C(=O)N[C@@H](CCCNC(=N)N)C(=O)N[C@@H](CCC(N)=O)C(=O)N[C@@H](CCCCN)C(=O)N[C@@H](CC(C)C)C(=O)N[C@@H](CC(C)C)C(=O)N[C@@H](CC(N)=O)C(N)=O)[C@@H](C)O` (Ac-[hCys]ATQLRRFGDKLNFRQKLLN-NH2): the IC50 in assay [1] was over 1000 nM; in assay [2] it was 83 nM; in assay [3], 266 nM; in assay [4], over 1000 nM.

Regarding Ac-CATQLRRFGDKLNFRQKLLN-NH2, the IC50 in assay [1] is over 1000 nM; in assay [2], 7.5 nM; in assay [3], 228 nM; in assay [4] it was over 1000 nM.

With `CC[C@H](C)[C@H](NC(=O)[C@H](CCCCN)NC(=O)[C@H](CCCNC(=N)N)NC(=O)[C@H](CC(C)C)NC(=O)[C@H](CCC(N)=O)NC(=O)[C@H](C)NC(=O)[C@H](C)NC(=O)[C@H](Cc1ccccc1)NC(=O)[C@H](CCC(=O)O)NC(=O)[C@@H]1CCCN1C(=O)[C@@H]1CCCN1C(=O)[C@H](CC(C)C)NC(=O)[C@H](CCC(=O)O)NC(=O)[C@H](C)NC(C)=O)C(=O)NCC(=O)N[C@@H](CC(=O)O)C(=O)N[C@@H](CCCCN)C(=O)N[C@H](C(=O)N[C@@H](Cc1ccc(O)cc1)C(=O)N[C@@H](CS)C(N)=O)C(C)C`, the IC50 in assay [1], in assay [2] and in assay [4] was over 1000 nM throughout.
